Laboratory results reported in PubChem BioAssay AID1259407 (Chemical Carcinogenesis Research Information System (CCRIS), 2018).
Active and inactive are the calls of the source. How the calls were made is not given here.

System: CCRIS mutagenicity, Ames/micronucleus/aberration tests
Assay: CCRIS mutagenicity studies
[1] = Test System: AMES SALMONELLA TYPHIMURIUM, Strain/Indicator: TA98, Metabolic Activation: NONE, Method: STANDARD PLATE
[2] = Test System: AMES SALMONELLA TYPHIMURIUM, Strain/Indicator: TA98, Metabolic Activation: RAT, LIVER, S-9, AROCLOR 1254, Method: STANDARD PLATE
[3] = Test System: AMES SALMONELLA TYPHIMURIUM, Strain/Indicator: TA1538, Metabolic Activation: NONE, Method: STANDARD PLATE
[4] = Test System: UDS HUMAN FIBROBLASTS, Strain/Indicator: THY INCORP (NON-S-PHASE), Metabolic Activation: NONE, Method: AUTORADIOGRAPHY
[5] = Test System: AMES SALMONELLA TYPHIMURIUM, Strain/Indicator: TA98, Metabolic Activation: NONE, Method: PREINCUBATION
[6] = Test System: AMES SALMONELLA TYPHIMURIUM, Strain/Indicator: TA100, Metabolic Activation: NONE, Method: PREINCUBATION

For `CSc1ccc(Cl)cc1`, the mutagenic call [1] was “inactive; negative”, the mutagenic call [2] was “inactive; negative” and the mutagenic call (Test System: AMES SALMONELLA TYPHIMURIUM, Strain/Indicator: TA100, Metabolic Activation: NONE, Method: STANDARD PLATE) was “inactive; negative”. The mutagenic call (Test System: AMES SALMONELLA TYPHIMURIUM, Strain/Indicator: TA100, Metabolic Activation: RAT, LIVER, S-9, AROCLOR 1254, Method: STANDARD PLATE) was “inactive; negative”, the mutagenic call (Test System: AMES SALMONELLA TYPHIMURIUM, Strain/Indicator: TA1535, Metabolic Activation: NONE, Method: STANDARD PLATE) was “inactive; negative” and the mutagenic call (Test System: AMES SALMONELLA TYPHIMURIUM, Strain/Indicator: TA1535, Metabolic Activation: RAT, LIVER, S-9, AROCLOR 1254, Method: STANDARD PLATE) was “inactive; negative”. For the same compound, the mutagenic call (Test System: AMES SALMONELLA TYPHIMURIUM, Strain/Indicator: TA1537, Metabolic Activation: NONE, Method: STANDARD PLATE) was “inactive; negative”, the mutagenic call (Test System: AMES SALMONELLA TYPHIMURIUM, Strain/Indicator: TA1537, Metabolic Activation: RAT, LIVER, S-9, AROCLOR 1254, Method: STANDARD PLATE) was “inactive; negative” and the mutagenic call [3] was “inactive; negative”. For the same compound, the mutagenic call (Test System: AMES SALMONELLA TYPHIMURIUM, Strain/Indicator: TA1538, Metabolic Activation: RAT, LIVER, S-9, AROCLOR 1254, Method: STANDARD PLATE) was “inactive; negative”.
With `COC1=C(N)C(=O)c2nc(-c3nc(C(=O)O)c(C)c(-c4ccc(OC)c(OC)c4O)c3N)ccc2C1=O` the mutagenic call (Test System: AMES SALMONELLA TYPHIMURIUM, Strain/Indicator: TA102, Metabolic Activation: NONE, Method: STANDARD PLATE) was “active; positive”, the mutagenic call (Test System: AMES SALMONELLA TYPHIMURIUM, Strain/Indicator: TA2638, Metabolic Activation: NONE, Method: STANDARD PLATE) was “active; positive” and the mutagenic call (Test System: AMES SALMONELLA TYPHIMURIUM, Strain/Indicator: TA2638A, Metabolic Activation: NONE, Method: STANDARD PLATE) was “active; positive”. The mutagenic call (Test System: E. COLI, Strain/Indicator: WP2 (PKM101), Metabolic Activation: NONE, Method: STANDARD PLATE) was “active; positive”, the mutagenic call (Test System: E. COLI, Strain/Indicator: WP2 UVRA (PKM101), Metabolic Activation: NONE, Method: STANDARD PLATE) was “active; positive” and the mutagenic call [4] was “active; positive”.
With `O=[N+]([O-])c1ccccc1Br` the mutagenic call [5] was “inactive; negative”, the mutagenic call [6] was “inactive; negative” and the mutagenic call (Test System: AMES SALMONELLA TYPHIMURIUM, Strain/Indicator: TA100, Metabolic Activation: RAT, LIVER, S-9, KANECHLOR 500, Method: PREINCUBATION) was “active; positive”.
In the case of `Cc1cc(O)c2c(c1O)C(=O)c1ccccc1C2=O`, the mutagenic call [5] is reported as “inactive; negative”, the mutagenic call (Test System: AMES SALMONELLA TYPHIMURIUM, Strain/Indicator: TA98, Metabolic Activation: RAT, LIVER, S-9, PCB, Method: PREINCUBATION) is reported as “active; positive” and the mutagenic call [6] is reported as “inactive; negative”. For the same compound, the mutagenic call (Test System: AMES SALMONELLA TYPHIMURIUM, Strain/Indicator: TA100, Metabolic Activation: RAT, LIVER, S-9, PCB, Method: PREINCUBATION) was “active; positive”.
`CC(=O)ON(C(C)=O)c1ccc2c(c1)Cc1ccccc1-2` was tested, and the mutagenic call [1] was “active; positive”, the mutagenic call [2] was “active; positive” and the mutagenic call [3] was “active; positive”. For the same compound, the mutagenic call (Test System: AMES SALMONELLA TYPHIMURIUM, Strain/Indicator: TA1538, Metabolic Activation: RAT, LIVER, S-9, KC500 OR PHENOBARBITAL, Method: LIQUID SUSPENSION) was “active; positive”, the mutagenic call (Test System: CHINESE HAMSTER V-79, Strain/Indicator: V-79/6-THIOGUANINE, Metabolic Activation: NONE) was “active; positive” and the mutagenic call (Test System: CHINESE HAMSTER V-79, Strain/Indicator: V-79/8-AZAGUANINE, Metabolic Activation: NONE, Method: STANDARD PLATE) was “active; positive”. The mutagenic call (Test System: UDS HUMAN CELLS, Strain/Indicator: THY INCORP (NON-S-PHASE), Metabolic Activation: NONE, Method: LIQUID SCINTILLATION COUNTING) was “active; positive”, the mutagenic call [4] was “active; positive” and the mutagenic call (Test System: UDS HUMAN FIBROBLASTS, Strain/Indicator: THY INCORP (NON-S-PHASE), Metabolic Activation: NONE, Method: LIQUID SCINTILLATION COUNTING) was “active; positive”. For the same compound, the mutagenic call (Test System: UDS HUMAN LYMPHOCYTES, Strain/Indicator: THY INCORP (NON-S-PHASE), Metabolic Activation: NONE, Method: LIQUID SCINTILLATION COUNTING) was “active; positive”, the mutagenic call (Test System: UDS RODENT CELLS, Strain/Indicator: THY INCORP (NON-S-PHASE), Metabolic Activation: NONE, Method: AUTORADIOGRAPHY) was “active; positive” and the mutagenic call (Test System: UDS RODENT CELLS, Strain/Indicator: THY INCORP (NON-S-PHASE), Metabolic Activation: NONE, Method: LIQUID SCINTILLATION COUNTING) was “active; positive”. The mutagenic call (Test System: UDS RODENT HEPATOCYTES, Strain/Indicator: THY INCORP (NON-S-PHASE), Method: LIQUID SCINTILLATION COUNTING) was “active; positive” and the mutagenic call (Test System: UDS RODENT PRIMARY CELLS, Strain/Indicator: THY INCORP (NON-S-PHASE), Metabolic Activation: NONE, Method: AUTORADIOGRAPHY) was “active; positive”.
For `Nc1ccnc2ccccc12`, the mutagenic call [5] was “inactive; negative”, the mutagenic call (Test System: AMES SALMONELLA TYPHIMURIUM, Strain/Indicator: TA98, Metabolic Activation: RAT, LIVER, S-9, KANECHLOR 500 OR PHENOBARBITAL AND BETA-NAPHTHOFLAVONE, Method: PREINCUBATION) was “inactive; negative” and the mutagenic call [6] was “inactive; negative”. For the same compound, the mutagenic call (Test System: AMES SALMONELLA TYPHIMURIUM, Strain/Indicator: TA100, Metabolic Activation: RAT, LIVER, S-9, KANECHLOR 500 OR PHENOBARBITAL AND BETA-NAPHTHOFLAVONE, Method: PREINCUBATION) was “inactive; negative”.
In the case of `Nc1cc([N+](=O)[O-])cc([N+](=O)[O-])c1C(=O)O`, the mutagenic call (End Point: In vitro chromosomal aberrations, Test System: V79 Chinese hamster fibroblasts, Metabolic Activation: None) is reported as “inactive; negative”, the mutagenic call (End Point: In vitro micronucleus, Test System: HepG2 human hepatoma cells, Metabolic Activation: None) is reported as “active; positive” and the mutagenic call (Test System: Ames Salmonella typhimurium, Strain/Indicator: TA98, Metabolic Activation: None, Method: Standard plate) is reported as “active; positive”. For the same compound, the mutagenic call (Test System: Ames Salmonella typhimurium, Strain/Indicator: TA98, Metabolic Activation: Rat, Liver, S-9, Method: Standard plate) was “active; positive”, the mutagenic call (Test System: Ames Salmonella typhimurium, Strain/Indicator: TA98NR, Metabolic Activation: None, Method: Standard plate) was “active; positive” and the mutagenic call (Test System: Ames Salmonella typhimurium, Strain/Indicator: TA100, Metabolic Activation: None, Method: Standard plate) was “inactive; negative”. The mutagenic call (Test System: Ames Salmonella typhimurium, Strain/Indicator: TA100, Metabolic Activation: Rat, Liver, S-9, Method: Standard plate) was “inactive; negative”.
In the case of `Nc1cc(Cl)ccc1[N+](=O)[O-]`, the mutagenic call (End Point: IN VITRO CHROMOSOMAL ABERRATIONS, Test System: CHL CELLS, Metabolic Activation: RAT, LIVER, S-9, SODIUM PHENOBARBITAL AND 5,6-BENZOFLAVONE) is reported as “active; positive (structural changes); authors report equivocal results for ploidy chang”, the mutagenic call [5] is reported as “active; positive” and the mutagenic call (Test System: AMES SALMONELLA TYPHIMURIUM, Strain/Indicator: TA98, Metabolic Activation: RAT LIVER S-9, PHENOBARBITAL AND BETA-NAPHTHOFLAVONE, Method: PREINCUBATION) is reported as “active; positive”. For the same compound, the mutagenic call [6] was “inactive; negative”, the mutagenic call (Test System: AMES SALMONELLA TYPHIMURIUM, Strain/Indicator: TA100, Metabolic Activation: RAT LIVER S-9, PHENOBARBITAL AND BETA-NAPHTHOFLAVONE, Method: PREINCUBATION) was “inactive; negative” and the mutagenic call (Test System: AMES SALMONELLA TYPHIMURIUM, Strain/Indicator: TA1535, Metabolic Activation: NONE, Method: PREINCUBATION) was “inactive; negative”. For the same compound, the mutagenic call (Test System: AMES SALMONELLA TYPHIMURIUM, Strain/Indicator: TA1535, Metabolic Activation: RAT LIVER S-9, PHENOBARBITAL AND BETA-NAPHTHOFLAVONE, Method: PREINCUBATION) was “inactive; negative”, the mutagenic call (Test System: AMES SALMONELLA TYPHIMURIUM, Strain/Indicator: TA1537, Metabolic Activation: NONE, Method: PREINCUBATION) was “inactive; negative” and the mutagenic call (Test System: AMES SALMONELLA TYPHIMURIUM, Strain/Indicator: TA1537, Metabolic Activation: RAT LIVER S-9, PHENOBARBITAL AND BETA-NAPHTHOFLAVONE, Method: PREINCUBATION) was “inactive; negative”. The mutagenic call (Test System: E.COLI, Strain/Indicator: WP2UVRA, Metabolic Activation: NONE, Method: PREINCUBATION) was “inactive; negative” and the mutagenic call (Test System: E.COLI, Strain/Indicator: WP2UVRA, Metabolic Activation: RAT LIVER S-9, PHENOBARBITAL AND BETA-NAPHTHOFLAVONE, Method: PREINCUBATION) was “inactive; negative”.
